Assay results from patent publication US12551576B2, “Chemiluminescent probes” (The General Hospital Corporation, priority 2020, dated 2026).
“And” between values parts separate entries of the source, which are not always exact repeats. Equal entries are not always repeated. Where two headings read alike, the source gives them in different places.

Legend:
Aβ40 aggregates [1] = target: T1, Aβ40 aggregates (Homo sapiens, UniProt P05067); experiment: In vitro fluorescence spectral testing of ADLumin-1 with Aβ40 aggregates; type: binding
T1 sequence (P05067 672-711 limits assumed): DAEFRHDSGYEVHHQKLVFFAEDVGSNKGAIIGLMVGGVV

Aβ40 aggregates [2] = target: T1, Aβ40 aggregates; experiment: In vitro chemiluminescence study with Aβ aggregates in PBS; type: binding
[3] = Fluorescence and chemiluminescence spectral studies; type: physicochemical
Method: Materials and Methods: reagents used for the synthesis were purchased from Sigma-Aldrich and used without further purification. Column chromatography was performed on a glass column slurry-packed with silica gel (60 Å, […]; SiliCycle Inc.). Recombinant Aβ peptide (1-40/42) were purchased from rPeptide (A-1163-1). Aβ aggregates for in vitro studies were generated by slow stirring of Aβ40 in PBS buffer for 3 days at room temperature. ^1H and ^13C NMR spectra were recorded at 500 MHz and 125 MHz on Bruker spectrometers in CDCl3, CD3OD or DMSO-d6 solutions at room temperature with tetramethylsilane (TMS, δ=0) as an internal standard. Liquid chromatography-mass spectrometry (LC-MS) was performed using an Agilent 1200 Series apparatus with an LC/MSD trap and Daly conversion dynode detector with UV detection at 254 nm. Fluorescence measurements were carried out using an F-7100 fluorescence spectrophotometer (Hitachi). Transgenic female 5×FAD mice and age-matched wild-type female mice were purchased from Jackson Laboratory. All animal experiments were approved by the Institutional Animal Use and Care Committee at Massachusetts General Hospital. The IVIS Spectrum animal imaging system (PerkinElmer) was used for in vitro and in vivo imaging.
Fluorescence spectral studies: Normally, all chemiluminescent molecules are fluorescent. The excitation and emission spectra of ADLumin-X were recorded and the emission peak of ADLumin-1 was around 590 nm (FIG. 1D) in DMSO, which is considerably longer than most of the commercially available chemiluminescence probes. The emission of ADLumin-2 is longer than that of ADLumin-1, due to its additional double-bond. (the emission peak of ADLumin-2 was 20 nm longer). […] Based on this fact, ADLumin-1 was used throughout this example, due to its high QY.
Chemiluminescence spectral studies: ADLumin-1 is stable in PBS buffer and organic solvents, including acetonitrile, dichloromethane and methanol. […] Without being bound by any theory, it is believed that the luminescence was due to the auto-oxidation of ADLumin-1. Although the mechanism of chemiluminescence of IPO derivatives has been studied, the mechanism of auto-oxidation has been rarely explored. In the course of the experiments, ADLumin-1 emitted very strong luminescence in pure DMSO (FIG. 2b). Unexpectedly, if the ADLumin-1 DMSO solution was stirred, even stronger luminescence can be detected (3.4-fold in FIG. 2b). Without being bound by any theory, it is believed that the luminescence was related to oxygen levels in DMSO. […] However, the increasing-fold decreased with cycles (FIG. 2c). […] Since no ROS were added into the DMSO solution, it is reasonable to infer that the auto-oxidation of ADLumin-1 was oxygen-level dependent. It is worthy to note that green fluorescent protein and luciferase/luciferin also dependent on oxygen for their proper imaging functions.

PA-K = experiment: Chemiluminescence detection of model aggregates (PA-K); type: binding; settings: ADLumin-1 2.5 μM, PA-K 0.5 mg/ml
amylin = amylin (Homo sapiens, UniProt P10997); type: binding
Chain of amylin (P10997 34-70 limits assumed): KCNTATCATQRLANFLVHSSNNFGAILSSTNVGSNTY

[4] = target: alpha-synuclein in human serum (Homo sapiens, UniProt P37840); experiment: Chemiluminescence of synuclein incubated with human serum
human serum albumin = human serum albumin (Homo sapiens, UniProt P02768); experiment: Aβ aggregates incubated with human serum albumin
Chain of human serum albumin (P02768 25-609): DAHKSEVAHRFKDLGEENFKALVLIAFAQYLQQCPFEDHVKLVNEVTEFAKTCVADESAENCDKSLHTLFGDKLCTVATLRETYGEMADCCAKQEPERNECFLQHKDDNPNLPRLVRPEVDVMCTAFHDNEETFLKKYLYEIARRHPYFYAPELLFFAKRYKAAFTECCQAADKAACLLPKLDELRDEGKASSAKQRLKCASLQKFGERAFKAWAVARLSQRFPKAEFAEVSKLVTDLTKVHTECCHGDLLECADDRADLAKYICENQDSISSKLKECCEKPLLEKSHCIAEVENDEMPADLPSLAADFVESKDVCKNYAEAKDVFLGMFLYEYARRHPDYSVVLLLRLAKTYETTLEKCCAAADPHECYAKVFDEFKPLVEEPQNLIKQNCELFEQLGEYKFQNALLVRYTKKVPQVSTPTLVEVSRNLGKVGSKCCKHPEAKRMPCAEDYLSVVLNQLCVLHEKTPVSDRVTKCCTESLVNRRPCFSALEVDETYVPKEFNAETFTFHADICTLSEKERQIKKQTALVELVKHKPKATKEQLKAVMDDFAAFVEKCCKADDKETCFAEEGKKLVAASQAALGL

[5] = tested on: beta-sheet misfoldons in mixed HC and disease serum; design: species or system human
[6] = target: Aβ plaques and cerebral amyloid angiopathy (CAA) (Homo sapiens, UniProt P05067)
Chain of Aβ plaques and cerebral amyloid angiopathy (CAA) (P05067 672-713 limits assumed): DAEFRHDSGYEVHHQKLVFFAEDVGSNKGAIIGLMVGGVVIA

[7] = chemiluminescence / bioluminescence spectra
[8] = two-photon imaging, 5×FAD mouse, i.v. 4 mg/kg

Cc1nc2c[nH]c(/C=C/C=C/c3ccc(N(C)C)cc3)cn-2c1=O [ADLumin-1, 6-((1E,3E)-4-(4-(dimethylamino)phenyl)buta-1,3-dien-1-yl)-2-methylimidazo[1,2-a]pyrazin-3(7H)-one]
fluorescence intensity increasing upon mixing with Aβs (Aβ40 aggregates [1]): 100 fold | shift of fluorescence emission of the probe with Aβs (Aβ40 aggregates [1]): significant blue-shift | chemiluminescence signal, wells with Aβs vs wells without Aβs (Aβ40 aggregates [2]; IVIS imaging system, open filter, 96-well plate): 104 fold | chemiluminescence intensity increase upon incubation with Aβs (Aβ40 aggregates [2]; PBS buffer with 2% DMSO, at 540 nm): about 216 fold | amplification of chemiluminescence intensity upon mixing with Aβs in vitro (Aβ40 aggregates [2]; in vitro, summary statement): 216 fold and > 200 fold | stability ([3]; PBS buffer and organic solvents, including acetonitrile, dichloromethane and methanol): stable | emission peak (FWHM comparison) [3, 7]: 540 nm | full width at half-maximum (FWHM) [3, 7]: 94 nm | fluorescence emission peak ([3]; in DMSO): around 590 nm | chemiluminescence emission peak ([3]; in the presence of 10% DMSO): around 540 nm | chemiluminescence signal increase vs ADLumin-1 only in PBS (PA-K): 2.49 fold | largest chemiluminescence difference with aggregates (amylin): 4.20 fold | chemiluminescence difference vs control group [4]: 4.30 fold | difference between Aβ/albumin and albumin only group (human serum albumin): no significant differences | total signal of mixed group vs sum of 90% HC serum and 10% AD serum [5]: 1.66 fold | signal mixture of HC serum and disease serum vs HC serum ([5]; 10% diabetes serum): 3.34 fold | signal mixture of HC serum and disease serum vs HC serum ([5]; 10% multiple sclerosis serum): 7.24 fold | signal mixture of HC serum and disease serum vs HC serum ([5]; 10% pulmonary fibrosis serum): 4.60 fold | signal mixture of HC serum and disease serum vs HC serum ([5]; 10% rheumatoid arthritis serum): 6.64 fold | chemiluminescence signal mixed group vs 100% HC serum ([5]; 90% HC serum and 10% AD serum): 7.75 fold | SNR of CAAs [6, 8]: ~26.0 | SNR of plaques [6, 8]: about 17.0 | time to peak intensity in CAA ([6]; two-photon time-course imaging): ≤ 1 min | time to peak intensity in plaques ([6]; two-photon time-course imaging): 5 min
